According to patent publication US4822823A, “Aqueous preparation and method of preparation thereof” (priority 1986, dated 1989):
“Also recorded” adds a separate entry of the source. Where two headings read alike, the source gives them in different places. Blank lines part the entries; values can stand above or below the molecule they belong to.

Legend:
[1] = Stability test of compound (A) with α-cyclodextrin at varying pHs; type: physicochemical
Description: Stability test of compound (A) was performed in the following formula at varying pHs: […]
Purified Water amount totaling 1000 ml
Note: The data are represented in terms of persistence rate (%).

[2] = 25° C.; cited from earlier work
5-riboxygenase = settings: cited from earlier work
[3] = test system: production of SRS-A or LTB4; settings: cited from earlier work
[4] = test system: experimental allergic asthma; settings: IgG and IgE, Guinea pigs; cited from earlier work
[5] = test system: experimental allergic asthma; settings: IgE, rats; cited from earlier work
[6] = for enhancement of solubility of compound (A) (in words): phosphoric acid buffer pH 6.0
Description: The dissolution-assisting agents used as a control are β-cyclodextrin, γ-cyclodextrin, polyvinyl pyrrolidone (hereinbelow abbreviated as PVP), polyoxyethylene monostearate (hereinbelow abbreviated as MYS-40), polyoxyethylene sorbitan monooleate (hereinbelow abbreviated as TO-80), and polyoxyethylene cured castor oil (hereinbelow abbreviated as HCO-40, HCO-60).
Solubility was determined by dissolving the respective dissolution-assisting agents into 0.2 mole of phosphoric acid buffer solution (Na2 HPO4 NaH2 PO4, pH 6.0), then adding excessive amount of compound (A) and shaking the mixed solution at room temperature (15° C.~20° C.) for 5 days, centrifuging the solution, filtering the supernatant by use of cotton stoppers, and subsequently measuring the concentration of compound (A) contained in the filtrate with a high-speed liquid chromatography.

persistence rate ([1]; 60° C.-3 days, pH 4.0, with α-cyclodextrin): 101.2%
persistence rate ([1]; 60° C.-3 days, pH 5.0, with α-cyclodextrin): 102.6%
persistence rate ([1]; 60° C.-3 days, pH 6.0, with α-cyclodextrin): 102.5%
persistence rate ([1]; 60° C.-3 days, pH 7.0, with α-cyclodextrin): 93.3%
persistence rate ([1]; 60° C.-5 days, pH 4.0, with α-cyclodextrin): 102.5%
persistence rate ([1]; 60° C.-5 days, pH 5.0, with α-cyclodextrin): 99.5%
persistence rate ([1]; 60° C.-5 days, pH 6.0, with α-cyclodextrin): 102.8%
persistence rate ([1]; 60° C.-5 days, pH 7.0, with α-cyclodextrin): 87.6%
persistence rate ([1]; Room temp.-5 days, pH 4.0, with α-cyclodextrin): 99.6%
persistence rate ([1]; Room temp.-5 days, pH 5.0, with α-cyclodextrin): 103.0%
persistence rate ([1]; Room temp.-5 days, pH 6.0, with α-cyclodextrin): 99.4%
persistence rate ([1]; Room temp.-5 days, pH 7.0, with α-cyclodextrin): 99.1%
Molecule: CC1=C(C)C(=O)C(CCCCC#CCCCC#CCO)=C(C)C1=O [Compound (A)]
solubility to water [2]: less than 10 ng/ml
5-riboxygenase inhibition (in words) (5-riboxygenase): selective inhibitor for 5-riboxygenase
inhibition of production of SRS-A or LTB4 (in words) [3]: inhibit the production of SRS-A or LTB4
effect on experimental allergic asthma (in words) [4]: showing experimental allergic asthma
effect on experimental allergic asthma (in words) [5]: showing experimental allergic asthma

solubility-enhancing effect relative to phosphoric acid buffer ([6]; compound (A), versus phosphoric acid buffer having pH 6): 1000 times
Molecule: OC[C@H]1O[C@@H]2O[C@H]3[C@H](O)[C@@H](O)[C@@H](O[C@H]4[C@H](O)[C@@H](O)[C@@H](O[C@H]5[C@H](O)[C@@H](O)[C@@H](O[C@H]6[C@H](O)[C@@H](O)[C@@H](O[C@H]7[C@H](O)[C@@H](O)[C@@H](O[C@H]1[C@H](O)[C@H]2O)O[C@@H]7CO)O[C@@H]6CO)O[C@@H]5CO)O[C@@H]4CO)O[C@@H]3CO [α-cyclodextrin]
enhancement of solubility of compound (A) (in words) [6]: remarkably enhances the solubility of compound (A) without impairing its stability; also recorded: highly advantageous effect; also recorded: prominent enhancement of solubility

Molecule: OC[C@H]1O[C@@H]2O[C@H]3[C@H](O)[C@@H](O)[C@@H](O[C@H]4[C@H](O)[C@@H](O)[C@@H](O[C@H]5[C@H](O)[C@@H](O)[C@@H](O[C@H]6[C@H](O)[C@@H](O)[C@@H](O[C@H]7[C@H](O)[C@@H](O)[C@@H](O[C@H]8[C@H](O)[C@@H](O)[C@@H](O[C@H]9[C@H](O)[C@@H](O)[C@@H](O[C@H]1[C@H](O)[C@H]2O)O[C@@H]9CO)O[C@@H]8CO)O[C@@H]7CO)O[C@@H]6CO)O[C@@H]5CO)O[C@@H]4CO)O[C@@H]3CO [γ-cyclodextrin, reference compound]
enhancement of solubility of compound (A) (in words) [6]: do not show any intended effect; also recorded: can hardly enhance the solubility

solubility-enhancing effect relative to phosphoric acid buffer ([6]; pH 6): 1000 times
Molecule: dimethyl-β-cyclodextrin
